Laboratory results reported in patent US7674819B2 (Warner-Lambert Company LLC, priority 2005, dated 2010).
Where two headings read alike, the source gives them in different places.

Biological target: T1, hAR (Homo sapiens, UniProt P10275)
T1 sequence (P10275 1-920): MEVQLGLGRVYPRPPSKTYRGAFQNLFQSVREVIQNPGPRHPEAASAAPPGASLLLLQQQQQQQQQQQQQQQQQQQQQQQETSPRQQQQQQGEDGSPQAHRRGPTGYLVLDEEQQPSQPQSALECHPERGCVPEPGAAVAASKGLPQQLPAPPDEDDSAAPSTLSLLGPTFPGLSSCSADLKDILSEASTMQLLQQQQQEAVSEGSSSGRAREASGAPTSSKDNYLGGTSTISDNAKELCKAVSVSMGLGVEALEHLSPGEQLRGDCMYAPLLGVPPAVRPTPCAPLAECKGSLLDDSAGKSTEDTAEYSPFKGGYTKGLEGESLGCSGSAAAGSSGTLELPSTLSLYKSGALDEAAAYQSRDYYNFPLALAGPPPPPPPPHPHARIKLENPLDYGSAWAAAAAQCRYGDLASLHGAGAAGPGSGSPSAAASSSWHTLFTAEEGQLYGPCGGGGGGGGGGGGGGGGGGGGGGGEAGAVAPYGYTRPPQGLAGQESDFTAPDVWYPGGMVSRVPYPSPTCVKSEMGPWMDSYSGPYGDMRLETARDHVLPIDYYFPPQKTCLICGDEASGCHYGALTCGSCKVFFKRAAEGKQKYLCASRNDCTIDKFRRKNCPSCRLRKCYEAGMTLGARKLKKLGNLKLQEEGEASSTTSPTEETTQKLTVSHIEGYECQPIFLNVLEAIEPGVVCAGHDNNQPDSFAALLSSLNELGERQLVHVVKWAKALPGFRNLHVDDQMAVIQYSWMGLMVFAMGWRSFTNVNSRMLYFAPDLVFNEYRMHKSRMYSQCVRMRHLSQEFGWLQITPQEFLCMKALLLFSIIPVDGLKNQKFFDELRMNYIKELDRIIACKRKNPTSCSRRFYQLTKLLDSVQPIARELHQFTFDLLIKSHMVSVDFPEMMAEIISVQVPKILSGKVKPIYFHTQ
Assay: Competitive binding of 3H-DHT to baculovirus/Sf9 generated hAR extracts
Settings: one hour at 4° C., mean of multiple tests
Method: The description below describes how the assay was carried out.
Competitive binding analysis was performed on baculovirus/Sf9 generated hAR extracts in the presence or absence of different concentrations of test agent and a fixed concentration of ^3H-dihydrotestosterone (^3H-DHT) as tracer. This binding assay method is a modification of a protocol previously described (Liao S., et. al. J. Steroid Biochem. 20:11-17 1984). Briefly, progressively decreasing concentrations of compounds are incubated in the presence of hAR extract (Chang et al. P.N.A.S. Vol. 89, pp. […], 1992), hydroxylapatite, and 1 nM^3H-DHT for one hour at 4° C. Subsequently, the binding reactions are washed three times to completely remove excess unbound ^3H-DHT. hAR bound ^3H-DHT levels are determined in the presence of compounds (i.e. competitive binding) and compared to levels bound when no competitor is present (i.e. maximum binding). Compound binding affinity to the hAR is expressed as the concentration of compound at which one half of the maximum binding is inhibited.

[1] = concentration at which one half of maximum binding of 1 nM 3H-DHT to hAR is inhibited, read-out: IC50
[2] = IC50, concentration at which one half of maximum binding of 1 nM 3H-DHT to hAR is inhibited

Question: `CC1(C)CN(Cc2nc(-c3ccc(C4SCCS4)cc3)no2)C(=O)C1Oc1ccc(C#N)c(C(F)(F)F)c1` (stereo not shown) [Example 63, 4-{1-[3-(4-[1,3]Dithiolan-2-yl-phenyl)-[1,2,4]oxadiazol-5-ylmethyl]-4,4-dimethyl-2-oxo-pyrrolidin-3-yloxy}-2-trifluoromethyl-benzonitrile] was tested. Which IC50 [1] did it give?
Answer: The IC50 was 500 nM.

Question: With `Cc1cccc(-c2nnc(CN3CC(C)(C)C(Oc4ccc(C#N)c(C(F)(F)F)c4)C3=O)o2)c1` (stereo not shown) [Example 122, 4-[4,4-Dimethyl-2-oxo-1-(5-m-tolyl-[1,3,4]oxadiazol-2-ylmethyl)-pyrrolidin-3-yloxy]-2-trifluoromethyl-benzonitrile] as the molecule, how does the IC50 [1] read?
Answer: The IC50 was 271 nM.

Question: For `Cc1ccc(-c2nnc(C(C)N3CC(C)(C)C(Oc4ccc(C#N)c(C(F)(F)F)c4)C3=O)o2)cc1` (stereo not shown) [Example 129, 4-[4,4-Dimethyl-2-oxo-1-[1-(5-p-tolyl-[1,3,4]oxadiazol-2-yl)-ethyl]-pyrrolidin-3-yloxy]-2-trifluoromethyl-benzonitrile], which IC50 [2] is on record?
Answer: The IC50 was 63 nM.

Question: Which IC50 [2] does the source give for `CC(c1nnc(-c2ccccc2)o1)N1CC(C)(C)C(Oc2ccc(C#N)c(C(F)(F)F)c2)C1=O` (stereo not shown) [Example 128, 4-[4,4-Dimethyl-2-oxo-1-[1-(5-phenyl-[1,3,4]oxadiazol-2-yl)-ethyl]-pyrrolidin-3-yloxy]-2-trifluoromethyl-benzonitrile] here?
Answer: The IC50 was 82 nM.

Question: How did the IC50 [2] turn out when `COc1cccc(-c2nnc(C(C)N3CC(C)(C)C(Oc4ccc(C#N)c(C(F)(F)F)c4)C3=O)o2)c1` (stereo not shown) [Example 134, 4-(1-{1-[5-(3-methoxy-phenyl)-[1,3,4]oxadiazol-2-yl]-ethyl}-4,4-dimethyl-2-oxo-pyrrolidin-3-yloxy)-2-trifluoromethyl-benzonitrile] was run?
Answer: The IC50 was 76 nM.

Question: For `Cc1n[nH]c(C)c1S(=O)(=O)N1CC(C)(C)C(Oc2ccc(C#N)c(C(F)(F)F)c2)C1=O` (stereo not shown) [Example 77, 4-[1-(3,5-Dimethyl-1H-pyrazole-4-sulfonyl)-4,4-dimethyl-2-oxo-pyrrolidin-3-yloxy]-2-trifluoromethyl-benzonitrile], which IC50 [1] is on record?
Answer: Its IC50 is 246 nM.

Question: How did the IC50 [2] turn out when `CC1(C)CNC(=O)C1Oc1ccc(C#N)c(C(F)(F)F)c1` (single isomer, unassigned; (+)) [Example 3, (+)-4-(4,4-Dimethyl-2-oxo-pyrrolidin-3-yloxy)-2-trifluoromethyl-benzonitrile] was run?
Answer: The IC50 was 435 nM.

Question: With `CC1(C)CN(C2CCC2)C(=O)C1Oc1ccc(C#N)c(C(F)(F)F)c1` (stereo not shown) [Example 100F, 4-(1-Cyclobutyl-4,4-dimethyl-2-oxo-pyrrolidin-3-yloxy)-2-trifluoromethyl-benzonitrile] as the molecule, how does the IC50 [1] read?
Answer: Its IC50 is 243 nM.

Question: How did the IC50 [2] turn out when `CCC(CC)CN1CC(C)(C)C(Oc2ccc(C#N)c(C(F)(F)F)c2)C1=O` (stereo not shown) [Example 33, 4-[1-(2-Ethyl-butyl)-4,4-dimethyl-2-oxo-pyrrolidin-3-yloxy]-2-trifluoromethyl-benzonitrile] was run?
Answer: The IC50 was 478 nM.

Question: With `COC(=O)c1ccoc1CN1CC(C)(C)C(Oc2ccc(C#N)c(C(F)(F)F)c2)C1=O` (stereo not shown) [Example 58, 2-[3-(4-Cyano-3-trifluoromethyl-phenoxy)-4,4-dimethyl-2-oxo-pyrrolidin-1-ylmethyl]-furan-3-carboxylic acid methyl ester] as the molecule, how does the IC50 [1] read?
Answer: The IC50 was 313 nM.
